We go through 16 molecules from patent publication US20250154193A1, “STEROID COMPOUND, AND PREPARATION METHOD THEREFOR AND APPLICATION THEREOF” (CHOLESGEN (SHANGHAI) CO., LTD., priority 2022, published 2025).

A short description of data set [1]: Liver microsomal metabolic stability assay. Type of data set: in vitro ADME. As to conditions: rat liver microsomes, NADPH, 37° C., 0-60 minutes; read-out: Rat microsomal metabolic half-life (t1/2). The procedure:
PBS solution (100 mM), MgCl2 solution (100 mM), and NADPH solution (20 mM) were prepared respectively. Compound and testosterone (positive control) stock solutions were then prepared with dimethyl sulfoxide (DMSO), diluted to 100 µM with methanol for sample incubation, and stored at −10 to −30° C. 12.5 μL of rat liver microsomes (purchased from XenoTech, Cat. No.: R1000, Lot No.: 1310030, specification: 20 mg/mL), 432.5 µL of PBS solution (100 mM), 25 µL of NADPH solution (20 mM), and 25 μL of MgCl2 solution (100 mM) were added to a 96-well plate, mixed well, and pre-incubated at 37° C. for 5 minutes. 5 µL of substrate (test compound) solution was added to start the reaction. At specified time points of 0, 5, 15, 30, 45, and 60 minutes (0 and 60 minutes for the negative control group), 50 µL of the incubated samples were added to a stop plate containing 100 µL of ice-cold stop solution, vortexed for 1 minute to inactivate the reaction, and stored at −60 to −90° C. for subsequent analysis. Sample analysis of the test compound and the control compound testosterone was performed using LC-MS/MS method. Chromatographic peaks were integrated, calculated, and processed using Analyst software. Semi-quantitative analysis was performed for both the test compound and the control compound testosterone by calculating peak area ratios.
A general note: Liver microsomes are vesicles of endoplasmic reticulum, rich in cytochrome P450 enzymes.

A further data set relates to SREBP pathway. Description: SREBP luciferase reporter gene system (SRE-luciferase assay) in Huh-7/SRE-Luc cells. As to conditions: Homo sapiens, sterol-deficient medium, compound treatment 16 hours, luciferase/GFP ratio. It counts as cell-based. The procedure, abridged: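 Huh-7 cells stably carrying an LDLR promoter (SRE)-luciferase and GFP were treated for 16 hours in sterol-deficient medium (5% lipoprotein-deficient serum, 2 μM lovastatin, 10 μM mevalonate) at […] compound, with DMSO vehicle. IC50 derived from the ratio of luciferase activity to GFP fluorescence.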

As usually defined, the IC50 is the concentration that gives 50% inhibition. `C[C@H](CCC[C@@H](O)c1ccccc1F)[C@H]1CC[C@H]2[C@@H]3CC[C@H]4[C@@H](O)[C@@H](O)CC[C@]4(C)[C@H]3CC[C@]12C` (single isomer, unassigned) [compound 279, 24-[R-(2-fluorophenyl)(hydroxy)methyl]-5α-cholan-30,40-diol or 24-[S-(2-fluorophenyl)(hydroxy)methyl]-5α-cholan-30,40-diol]: the half-life at 1 µM in data set [1] is 0.922 h. For the same molecule, the IC50 with SREBP pathway was determined as 0.196 µM.

For `C[C@H](CCCC(C)(C)O)[C@H]1CC[C@H]2[C@@H]3CC[C@H]4C[C@@H](O)CC[C@]4(C)[C@H]3CC[C@]12C` [compound 185, cholest-3β,25-diol], the half-life at 1 µM in data set [1] amounted to 3.17 h. Further, the IC50 in the data set with SREBP pathway amounted to 0.233 µM.

As for `C[C@H](CCCC(C)(C)O)[C@H]1CC[C@H]2[C@@H]3CC[C@H]4[C@@H](O)[C@@H](O)CC[C@]4(C)[C@H]3CC[C@]12C` [compound 198, 5α-Cholest-30,40,25-triol], the half-life at 1 µM in data set [1] was found to be 1.2 h. The IC50 in the data set with SREBP pathway is 0.106 µM.

As for `C[C@H](CCCC(C)(C)O)[C@H]1CC[C@H]2[C@@H]3CC[C@H]4[C@H](O)[C@@H](O)CC[C@]4(C)[C@H]3CC[C@]12C` [compound 204, 5α-cholest-3β,4α,25-triol], the half-life at 1 µM in data set [1] was determined as 3.97 h. Also, the IC50 in the data set with SREBP pathway was found to be 0.395 µM.

As for `C[C@H](CCCC(C)(C)O)[C@H]1CC[C@H]2[C@@H]3C(=O)C[C@H]4C[C@@H](O)CC[C@]4(C)[C@H]3CC[C@]12C` [compound 216, 3P,25-dihydroxy-5α-cholest-7-one], the half-life at 1 µM in data set [1] turned out to be 0.385 h. Further, the IC50 in the data set with SREBP pathway amounted to 0.379 µM.

For the molecule `C[C@H](CCCC(C)(C)O)[C@H]1CC[C@H]2[C@@H]3CC[C@H]4C(=O)[C@@H](O)CC[C@]4(C)[C@H]3CC[C@]12C` [compound 238, 3β,25-Dihydroxy-5α-cholest-4-one], in data set [1], the half-life at 1 µM was found to be 1.26 h. In addition, in the data set with SREBP pathway, the IC50 is 0.049 µM.

Consider `C[C@H](CCCC(C)(C)O)[C@H]1CC[C@H]2[C@H]3[C@H](CC[C@]12C)[C@@]1(C)CC[C@H](O)[C@H](O)[C@@H]1CC3(F)F` [compound 274, (1R,3aS,3bS,5aR,6R,7S,9aR,9bS,11aR)-4,4-difluoro-1-[(2R)-6-hydroxy-6-methylheptan-2-yl]-9a,11a-dimethylhexadecahydro-1H-cyclopenta[1,2-a]phenanthrene-6,7-diol], for which the half-life at 1 µM in data set [1] was greater than 3.1 h. The IC50 in the data set with SREBP pathway turned out to be 0.313 µM.

Turning to `C[C@H](CCCC(O)c1c(F)cc(F)cc1F)[C@H]1CC[C@H]2[C@@H]3CC[C@H]4[C@@H](O)[C@@H](O)CC[C@]4(C)[C@H]3CC[C@]12C` (stereo partly drawn) [compound 275, 24-[(2,4,6-difluorophenyl)(hydroxy)methyl]-5α-cholan-3β,4β-diol], in data set [1], the half-life at 1 µM came to 1.52 h. For the same molecule, in the data set on SREBP pathway, the IC50 turned out to be 0.141 µM.

For the molecule `C[C@H](CCCC(O)c1cccc(F)c1)[C@H]1CC[C@H]2[C@@H]3CC[C@H]4[C@@H](O)[C@@H](O)CC[C@]4(C)[C@H]3CC[C@]12C` (stereo partly drawn) [compound 281, 24-[(3-fluorophenyl)(hydroxy)methyl]-5α-cholan-3β,4β-diol], the half-life at 1 µM in data set [1] turned out to be 1.17 h. In addition, in the data set with SREBP pathway, the IC50 was determined as 0.111 µM.

Consider `C[C@H](CCCC(O)c1c(F)cccc1F)[C@H]1CC[C@H]2[C@@H]3CC[C@H]4[C@@H](O)[C@@H](O)CC[C@]4(C)[C@H]3CC[C@]12C` (stereo partly drawn) [compound 284, 24-[(2,6-difluorophenyl)(hydroxy)methyl]-5α-cholan-3β,4β-diol], for which the half-life at 1 µM in data set [1] was greater than 2 h. In addition, the IC50 in the data set on SREBP pathway came out at 0.0874 µM.

As to `COc1ccccc1C(O)CCC[C@@H](C)[C@H]1CC[C@H]2[C@@H]3CC[C@H]4[C@@H](O)[C@@H](O)CC[C@]4(C)[C@H]3CC[C@]12C` (stereo partly drawn) [compound 287, 24-[Hydroxy(2-methoxyphenyl)methyl]-5α-cholan-30,40-diol], the half-life at 1 µM in data set [1] stood at 1.27 h. Further, the IC50 in the data set with SREBP pathway came to 0.159 µM.

Regarding `C[C@H](CCCC(O)c1c(F)cccc1F)[C@H]1CC[C@H]2[C@@H]3CC[C@H]4C(=O)[C@@H](O)CC[C@]4(C)[C@H]3CC[C@]12C` (some centres unmarked) [compound 298], the half-life at 1 µM in data set [1] was determined as 0.316 h. Also, in the data set with SREBP pathway, the IC50 is 0.028 µM.

Regarding `C[C@H](CCCC(O)c1c(F)cccc1F)[C@H]1CC[C@H]2[C@H]3[C@H](CC[C@]12C)[C@@]1(C)CC[C@H](O)[C@H](O)[C@@H]1CC3(F)F` (stereo partly drawn) [compound 300, (1R,3aS,3bS,5aR,6R,7S,9aR,9bS,11aR)-1-[(2R)-6-(2,6-difluorophenyl)-6-hydroxyhexan-2-yl]-4,4-difluoro-9a,11a-dimethylhexadecahydro-1H-cyclopenta[1,2-α]phenanthrene-6,7-diol], the half-life at 1 µM in data set [1] worked out at 0.402 h. Also, the IC50 with SREBP pathway was found to be 0.036 µM.

In the case of `C[C@H](CCCC(C)(C)O)[C@H]1CC[C@H]2[C@H]3[C@H](CC[C@]12C)[C@@]1(C)CC[C@H](O)C(=O)[C@@H]1CC3(F)F` [compound 302, (1R,3aS,3bS,5aR,7S,9aR,9bS,11aR)-4,4-difluoro-7-hydroxy-1-[(2R)-6-hydroxy-6-methylheptan-2-yl]-9a,11a-dimethylhexadecahydro-1H-cyclopenta[1,2-α]phenanthren-6-one], the half-life at 1 µM in data set [1] came to 0.979 h. Further, the IC50 with SREBP pathway was 0.035 µM.

On to `COc1cc(F)ccc1C(O)CCC[C@@H](C)[C@H]1CC[C@H]2[C@@H]3CC[C@H]4[C@@H](O)[C@@H](O)CC[C@]4(C)[C@H]3CC[C@]12C` (stereo partly drawn) [compound 306, 24-[(4-fluoro-2-methoxyphenyl)(hydroxy)methyl]-5α-cholan-3β,4β-diol], for which, in data set [1], the half-life at 1 µM is 1.74 h. Moreover, in the data set on SREBP pathway, the IC50 turned out to be 0.08 µM.

In the case of `C[C@H](CCCC(O)c1ccccc1OC(F)(F)F)[C@H]1CC[C@H]2[C@@H]3CC[C@H]4[C@@H](O)[C@@H](O)CC[C@]4(C)[C@H]3CC[C@]12C` (stereo partly drawn) [compound 317, 24-(hydroxy{2-[(trifluoromethyl)oxy]phenyl}methyl)-5α-cholan-3β,4β-diol], the half-life at 1 µM in data set [1] is 2.28 h. In addition, the IC50 in the data set with SREBP pathway was determined as 0.14 µM.
